What was measured:
Format in all cases: cell-based
Normal Human Melanocytes [1] = test: Melanocyte proliferation assay with 20% CD8+ T cell conditioned media; details: for suppressed melanocyte proliferation response: 1000 nM co-cultured with CD3/CD28-activated human CD8+ T cells, 20% conditioned media; for spontaneous proliferation compared to the natural melanocyte proliferation rate: added to the inflammatory culture media, time-dependent
Protocol: The assay investigates an in vitro system using CD8+ T Cells and melanocytes. The assay tests whether Compound 1 modulates the inflammatory response and how such modulation affects melanocyte biology.
(§1) Methods: CD8+ T cell Conditioned Media Step: Normal Human CD8+ T Cells from peripheral blood were purchased ([…] Technologies). They were cultured for 48 hours at 37 C and 5% CO2 under activating and unactivating conditions inside the Incucyte Live-Cell Analysis System (Essen Bioscience). Activated T cells were cultured in a flat bottom 96 well plate (Costar) that was first coated with 10 ug/ml anti-CD3 (BD Biosciences) for 2 hours at room temperature and then washed one time with PBS before cells were added. They were grown in Melanocyte Growth Medium (NHM-GM, MatTek) containing 1 ug/ml anti-CD28 (BD Biosciences). Unactivated T cells were treated the same way except that they were cultured in a separate plate without anti-CD3 and anti-CD28. Each T cell plate was treated at seeding with Compound 1 (1000, 100, or 10 nM) or media alone. Each treatment was done in triplicate. After 48 hours, all the samples (T cells and media) were transferred to new V-bottom plates and centrifuged at 1300 RPMs for 10 minutes. Supernatants were collected from the T cell pellets carefully to not disturb the pellet. The supernatants (CD8+ T cell Conditioned Media) used fresh to treat the melanocyte. The remaining amounts were stored at −80 C and then thawed for protein analysis by Luminex technology (custom Procarta 45-plex, Thermo Fisher Scientific). The treated CD8+ T cell pellets were lysed using the Quantigene sample processing kit reagents following the kit instructions. Lysates were stored at −80 C and then thawed for RNA analysis by Luminex technology using two custom Quantigene 80-Plexes—150 targeted genes total (Thermo Fisher Scientific).
(§2) Melanocyte Proliferation Step: Normal Human Melanocytes isolated from a donor's neonatal foreskin epidermis were purchased (MatTek). They were thawed and seeded following manufacturer's instruction in NHM-GM media in flat bottom 96 well plates (Costar) for 18 hours at 37 C and 5% CO2. They were approximately 10% confluent when treated with 20% CD8+ T cell Conditioned Media (25 ul Conditioned media added to 100 ul of NHM-GM already in the wells). They were cultured for 48 hours at 37 C and 5% CO2 inside the Incucyte Live-Cell Analysis System (Essen Bioscience) with 5 images per well taken every 3 hrs. After 48 hours, all the supernatants were transferred from the melanocyte plates to new V-bottom plates and centrifuged at 1300 RPMs for 10 minutes. Supernatants were collected and were stored at −80 C and then thawed for protein analysis by Luminex technology (custom Procarta 45-plex, Thermo Fisher Scientific). The treated melanocytes were lysed using the Quantigene sample processing kit reagents following the kit instructions. Lysates were stored at −80 C and then thawed for RNA analysis by Luminex technology using two custom Quantigene 80-Plexes for a total of 150 targeted genes (Thermo Fisher Scientific). Incucyte images were analyzed using the Incucyte software and the percentage of melanocyte confluence was determined for each treatment.
The assay investigates an in vitro system using CD8+ T Cells and melanocytes. The assay tests whether ruxolitinib modulates the inflammatory response and how such modulation affects melanocyte biology. […]

Normal Human Melanocytes [2] = test: Protein analysis (Luminex) of melanocyte media after 20% CD8+ T cell conditioned media; details: for IL-8, protein melanocyte media: melanocytes under stress conditions
Protocol: as §2

[3] = system: CD3/CD28-activated human CD8+ T cells; test: Protein analysis (Luminex) of CD8+ T cell conditioned media; details: for LIF, T cells: T cell data
Protocol: as §1
as §1, with “ruxolitinib” for “Compound 1”

[4] = melanocytes treated with activated T cell conditioned media
[5] = co-cultured with CD3/CD28-activated human CD8+ T cells

`Cc1n[nH]c(C)c1-c1cnn(C2(CC#N)CN(c3cc(F)c(C(=O)N[C@@H](C)C(F)(F)F)cc3F)C2)c1` [Compound 1, 4-[3-(cyanomethyl)-3-(3′,5′-dimethyl-1H,1′H-4,4′-bipyrazol-1-yl)azetidin-1-yl]-2,5-difluoro-N-[(1S)-2,2,2-trifluoro-1-methylethyl]benzamide] was tested, and the “suppressed melanocyte proliferation response” value (Normal Human Melanocytes [1]) was “partially reversed”, the “spontaneous proliferation compared to the natural melanocyte proliferation rate” value (Normal Human Melanocytes [1]) was “significant reduction” and the “melanocyte proliferation (% confluence)” value (Normal Human Melanocytes [1]; following transfer of 20% unactivated T cell media) was “does not directly alter”. The “increase of IL-8” value (Normal Human Melanocytes [2]; melanocyte culture) was about 450%, the “reduction of HGF levels” value (Normal Human Melanocytes [2]; melanocyte culture supernatants after activated T cell conditioned media) was about 67% and the “inflammatory cytokines that are JAK-STAT dependent, protein melanocyte media” value (Normal Human Melanocytes [2]; [4]) was “reduces”. The “IL-8, protein melanocyte media” value (Normal Human Melanocytes [2]) was “increased”, the “LIF, T cells” value [3] was “on-target inhibition” and the “additional mediators not obligated to use JAK1 signaling (growth factors and chemokine), protein T cell media” value [3, 5] was “reduced”. For the same compound, the “inflammatory cytokines that are JAK-STAT dependent, protein T cell media” value [3, 5] was “inhibits”.

In the case of `N#CC[C@H](C1CCCC1)n1cc(-c2ncnc3[nH]ccc23)cn1` [ruxolitinib], the “suppressed melanocyte proliferation response” value (Normal Human Melanocytes [1]) is reported as “completely reverse”, the “spontaneous proliferation compared to the natural melanocyte proliferation rate” value (Normal Human Melanocytes [1]) is reported as “significant reduction” and the “IL-10, protein melanocyte media” value (Normal Human Melanocytes [2]; [4]) is reported as “no effect”. The “IL-13, protein melanocyte media” value (Normal Human Melanocytes [2]; [4]) was “no effect”, the “inflammatory cytokines that are JAK-STAT dependent, protein melanocyte media” value (Normal Human Melanocytes [2]; [4]) was “reduces” and the “IL-8, protein melanocyte media” value (Normal Human Melanocytes [2]) was “reduced”. The “LIF, T cells” value [3] was “on-target inhibition”, the “IL-2, protein T cell media” value [3, 5] was “upregulated” and the “IL-4, protein T cell media” value [3, 5] was “no effect”. For the same compound, the “IL-5, protein T cell media” value [3, 5] was “no effect”, the “IL-6, protein T cell media” value [3, 5] was “no effect” and the “additional mediators not obligated to use JAK1 signaling (growth factors and chemokine), protein T cell media” value [3, 5] was “reduced”. For the same compound, the “inflammatory cytokines that are JAK-STAT dependent, protein T cell media” value [3, 5] was “inhibits” and the “IL-8 concentration, CD8+ T cells” value ([3]; treatment of CD8+ T cells) was “slightly reduced”.

From patent US11957661B2, “JAK1 pathway inhibitors for the treatment of vitiligo” (Incyte Corporation, priority 2020, dated 2024)
